Entries after “also recorded” stand apart in the source; their conditions may differ. Read-outs that look alike come from different tables or passages of the source.
Columns and labels:
Type in all cases: cell-based
[1] = tested on: colorectal cancer cell line HCT116; assay: cells; details: Homo sapiens
Procedure: (§1) To confirm the in vitro growth inhibitory efficacy of the samples prepared in Examples 1 to 28 against human lung cancer and colorectal cancer cell lines, the experiments were performed as follows by applying the method described in the literature (Lee S K et al ([…]) Chem Biol Interact 115:215-28). A human lung cancer cell line A549 and a colorectal cancer cell line HCT116 were acquired from the American Type Culture Collection (ATCC, Manassas, Va., USA) and used.
(§2) A549, HCT116 cells were subcultured once or twice weekly under conditions of 37° C. and 5% CO2 using Roswell Park Memorial Institute (RPMI) Medium 1640 (RPMI 1640) containing 10% heat-inactivated Fetal Bovine Serum (FBS), 100 units/mL penicillin, 100 μg/mL streptomycin, and 250 ng/mL amphotericin B. All cells were thawed from liquid nitrogen, subcultured three times or more, and then used in the experiment.
(§3) The effects of the compounds obtained in Examples 1 to 28 on cell growth were measured by a sulforhodamine B (SRB) method (Lee et al (1998) Chem Biol Interact 115: 215-28).
(§4) Specifically, the human lung cancer and colon cancer cell lines used in the present invention were subcultured in a RPMI medium containing 10% FBS, 1% PSF, and the like, 10 μl of a sample dissolved in 10% DMSO and 190 μl (5×10^4 cells/ml) of the cell suspension were placed in each well of a 96-well plate. 190 μl of the cell suspension was placed in at least 16 wells, cultured for 30 minutes, and used as a negative control (zero-day control) before the experiment. The cultured cells were fixed with 10% trichloroacetic acid (TCA) and then stained with an SRB solution, the staining solution was dissolved with 10 mM Tris-base, and absorbance was measured at 515 nm. Using the cell culture in 10% DMSO as a control, cell viability according to the treatment with each test sample was measured using the following Equation 1. % Cell viability=(OD(sample)−OD(0-day))/(OD(10% DMSO)−OD(0-day))×100 [Equation 1]
(§5) When the control in which the sample was not treated was defined as 100%, the value of the sample treatment group was shown as a percentage with respect to the control, and each test sample treatment was determined by the mean value±SEM of the duplicate or triplicate test. The IC50 value is the concentration of the test sample for 50% viability.

[2] = tested on: human lung cancer cell line A549; assay: cells; details: Homo sapiens
Procedure: as §1, §2, §3, §4, §5

[3] = tested on: human lung cancer and colorectal cancer cell lines; assay: In vitro growth inhibition (SRB), summary over both cell lines; details: compared with control compound etoposide
Procedure: as §1, §2, §3, §4, §5

[4] = HCT-116, read-out: HCT116-LC50, Table 2, SRB, concentration for 50% viability
[5] = A549, read-out: A549-LC50, Table 2, SRB, concentration for 50% viability

Compound	CC50 [1, 4] [nM]	CC50 [2, 5] [nM]	cancer cell growth inhibitory activity compared to etoposide [3]	CC50 ([1]; HCT-116, read-out: HCT116-LC50) [nM]	CC50 ([2]; A549, read-out: A549-LC50) [nM]
O=C(NCC[Se][Se]CCNC(=O)/C(Cc1ccc(O)c(F)c1)=N/O)/C(Cc1ccc(O)c(F)c1)=N/O [SSM-3, (2E,2′E)-N,N′-(diselanediylbis(ethane-2,1-diyl))bis(3-(3-fluoro-4-hydroxyphenyl)-2-(hydroxyimino)propanamide)]	50	60	higher inhibitory activity than a control compound etoposide; also recorded: excellent cancer cell growth inhibitory potential even compared to etoposide	–	–
O=C(NCC[Se][Se]CCNC(=O)/C(Cc1ccccc1)=N/O)/C(Cc1ccccc1)=N/O [SSM-4, (2E,2′E)-N,N′-(diselanediylbis(ethane-2,1-diyl))bis(2-(hydroxyimino)-3-phenylpropanamide)]	–	–	higher inhibitory activity than a control compound etoposide; also recorded: excellent cancer cell growth inhibitory potential even compared to etoposide	90	80
CCOc1ccc(C/C(=N\O)C(=O)NCC[Se][Se]CCNC(=O)/C(Cc2ccc(OCC)cc2)=N/O)cc1 [SSM-10, (2E,2′E)-N,N′-(diselanediylbis(ethane-2,1-diyl))bis(3-(4-ethoxyphenyl)-2-(hydroxyimino)propanamide)]	70	50	higher inhibitory activity than a control compound etoposide; also recorded: excellent cancer cell growth inhibitory potential even compared to etoposide	–	–
O=C(NCC[Se][Se]CCNC(=O)/C(Cc1ccc([N+](=O)[O-])cc1)=N/O)/C(Cc1ccc([N+](=O)[O-])cc1)=N/O [SSM-12, (2E,2′E)-N,N′-(diselanediylbis(ethane-2,1-diyl))bis(2-(hydroxyimino)-3-(4-nitrophenyl)propanamide)]	–	–	higher inhibitory activity than a control compound etoposide; also recorded: excellent cancer cell growth inhibitory potential even compared to etoposide	90	90

Source: US11629123B2, “Selenopsammaplin A and derivative thereof, preparation method therefor, and composition for preventing and treating cancer, containing same as active ingredients” (priority 2017, dated 2023)
